Experiment [1] relates to B16 melanoma. Nature of the experiment: In vivo efficacy study, B16 syngeneic melanoma model. Also noted: species or system mouse. The settings on record: Compound 9 10 mg/kg BID combined with anti-PD-L1.
The test system of experiment [2] is primary T cells co-cultured with CHO-PD-L1 cells. The note with it: 2 μM NECA. How it is done: In vitro the CHO-PD-L1 co-culture assay, T cells were treated in the presence of 20 CHO-PD-L1 cells with PD-1 antibody, and using 5′-N-ethylcarboxamide adenosine (NECA), an adenosine-mimicking reagent, to activate adenosine signaling.
Day 0, plate 10,000 CHO PDL1+ cells in Plate 96 Tissue Culture Flat Bottom plate in 100 ul of CHO Media without antibiotics. On day 1, T Cells were thawed and resuspended in T cell media at 1×10^6 cells/ml. Media was removed from the CHO PDL1+ cells plates and 130 ul of T cell media was added. T cell media at 198 ul was added onto the compound plates at 2 ul, or −1:100 dilution and then re-suspended. 20 ul of compounds from the compound plates were added onto the CHO cell plates at a final dilution of compounds at 1:1000. 50 ul of T cells (50,000 cells) were added onto the plates with CHO cells to make a total of 200 ul volume and incubation was carried out at 37° C. for 72 hrs. After 3 days in culture, the supernatant was collected for an hIFNg and hIL2 cytokine assay run using ProCartaplex 2 plex kits (Life Technologies Cat #PPX-02) for hIFNg and hIL2 (Manufacturer's Protocol). The cytokine assay using ProCartaplex kits are run on a Flex Map 3D Luminex multiplexing platform.

The test system of experiment [3] is CT-26 murine colon carcinoma hosted in NSG mice. Nature of the experiment: In vivo efficacy study, CT-26 NSG xenograft model. Also noted: species or system mouse. The settings on record: 10 mg/kg BID, CT-26 in NSG mice lacking T and NK cells.
Experiment [4] addresses Adenosine A2A Receptor (Homo sapiens (Human), UniProt P29274). Nature of the experiment: A2A Tag-lite HTRF Assay. It is filed as binding. The settings on record: Tag-lite A2A labeled cells, fluorescent ligand 12.5 nM; read-out: A2A_Ki.
Procedure: Test compounds were first serially diluted in DMSO and 100 nl added to the plate wells before the addition of other reaction components. The final concentration of DMSO was 1%. Tag-lite® Adenosine A2A labeled cells (CisBio C1TT1A2A) were diluted 1:5 into Tag-lite buffer (CisBio LABMED) and spun 1200 g for 5 mins.
Experiment [5] concerns PBMC from healthy donors stimulated by CD3 antibody. Put plainly: In vitro Mixed Lineage Reaction assay (MLR). It is filed as cell-based. How it is done: On day 0, 10,000 PBMCs from a healthy donor was co-cultured with 10,000 γ-radiated PBMCs from another healthy donor. […] Cells were incubated at 37° C. for 4 days. IFN-γ in the supernatant of each well was measured by a HTRF kit (Cisbio, 62[…]) and the fluorescent signal was detected on a Pherastar FS plate reader (BMG Labtech) on day 4.

Some results are limits rather than exact numbers.

Chain of Adenosine A2A Receptor (P29274 whole entry): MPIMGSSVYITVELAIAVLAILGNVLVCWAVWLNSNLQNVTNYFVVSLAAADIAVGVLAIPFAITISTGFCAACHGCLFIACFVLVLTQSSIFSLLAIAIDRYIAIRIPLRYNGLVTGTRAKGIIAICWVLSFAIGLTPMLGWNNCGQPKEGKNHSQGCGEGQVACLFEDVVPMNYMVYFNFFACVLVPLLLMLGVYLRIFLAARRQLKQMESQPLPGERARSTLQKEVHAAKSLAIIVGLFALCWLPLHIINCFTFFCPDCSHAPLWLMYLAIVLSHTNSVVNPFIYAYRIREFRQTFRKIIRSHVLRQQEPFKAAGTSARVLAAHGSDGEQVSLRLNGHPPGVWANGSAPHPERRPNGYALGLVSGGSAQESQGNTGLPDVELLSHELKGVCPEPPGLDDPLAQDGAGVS

Take `Cn1nc(-c2c(-c3cccc(C#N)c3)nc(N)c3nc(Cc4ccccn4)nn23)ccc1=O` [Compound 9, 3-(8-Amino-5-(1-methyl-6-oxo-1,6-dihydropyridazin-3-yl)-2-(pyridin-2-ylmethyl)-[1,2,4]triazolo[1,5-a]pyrazin-6-yl)benzonitrile]: in experiment [1], the tumor growth inhibition was found to be 54%. For the same compound, in experiment [2] (FIG. 1A), the “effect of combination with pembrolizumab” value is on record as “synergistic effect”. In addition, in experiment [2] (FIG. 1B), the “effect of combination with Antibody X” value is on record as “synergistic effect”. Further, the “effect of combination with Compound Y” value in experiment [2] (FIG. 1C) is on record as “synergistic effect”. Moreover, the single agent efficacy result in experiment [3] was “no single agent efficacy”. Moreover, in experiment [4], the Ki is below 0.01 µM. Besides, in experiment [5] (PBMC stimulated with CD3 antibody, FIGS. 2A-2D), the “effect of combination with atezolizumab” value is “synergistic effect”. For the same compound, in experiment [5] (combined with anti-PD-L1 antibody atezolizumab, 1 μM NECA, CD3 antibody, 4 days), the IFNγ production entry was “increase IFNγ production significantly”.

Values taken from patent publication US20250041310A1, “Combination Therapy Comprising A2A/A2B and PD-1/PD-L1 Inhibitors” (Incyte Corporation, priority 2020, published 2025).
